Key:
5-HT1D receptors = target: T1, 5-HT1D receptors (Homo sapiens, UniProt P28221); experiment: 5-HT1D receptor radioligand binding assay ([3H]-5-HT); conditions: CHO cells expressing 5-HT1D receptors; [3H]-5-HT 4 nM; 37° C., 45 minutes; read-out: pKi at 5-HT1D receptors (converted)
T1 construct: expressed in transfected cells; host or cells: CHO cells
Description: (§1) The affinities of the compounds of this invention for the 5HT1A, 5-HT1B and 5-HT1D receptors can be determined by the following radioligand binding assay. HEK 293 cells expressing 5-HT1A receptors (4×10^7/ml) are homogenised in Tris buffer and stored in 1 ml aliquots. CHO cells expressing 5-HT1B receptors (4×10^7 cells/ml) are homogenised in Tris buffer and stored in 1.5 ml aliquots. CHO cells expressing 5-HT1D receptors (0.563×10^8/ml) are homogenised in Tris buffer and stored in 1 ml aliquots. 0.4 ml of a cell suspension is incubated with [^3H]-5-HT (4 nM) for 5-HT1B/1D receptors and [^3H]-8-OH DPAT (1 nM) for 5-HT1A receptors in Tris Mg HCl buffer (pH 7.7) and test drug, at 37° C. for 45 minutes. Each test drug is tested at 10 concentrations (0.01 mM to 0.3 nM final concentration), with non-specific binding defined using 0.01 mM 5-HT. The total assay volume is 0.5 ml. Incubation is stopped by rapid filtration using a Packard Filtermate (filters pre-soaked in 0.3% polyethylenimine) and radioactivity measured by Topcount scintillation counting. pKi values are calculated from the IC50 generated by an iterative least squares curve fitting programme.
(§2) The affinities of the compounds of this invention were determined by methods described above.
(§3) 5-HT1A, 5-HT1B and 5-HT1D Receptor Binding

5-HT1A receptors = target: T2, 5-HT1A receptors (Homo sapiens, UniProt P08908); experiment: 5-HT1A receptor radioligand binding assay ([3H]-8-OH DPAT); conditions: HEK 293 cells expressing 5-HT1A receptors; [3H]-8-OH DPAT 1 nM; 37° C., 45 minutes; read-out: pKi at 5-HT1A receptors (converted)
T2 construct: expressed in transfected cells; host or cells: HEK 293 cells
T2 sequence (P08908 1-422): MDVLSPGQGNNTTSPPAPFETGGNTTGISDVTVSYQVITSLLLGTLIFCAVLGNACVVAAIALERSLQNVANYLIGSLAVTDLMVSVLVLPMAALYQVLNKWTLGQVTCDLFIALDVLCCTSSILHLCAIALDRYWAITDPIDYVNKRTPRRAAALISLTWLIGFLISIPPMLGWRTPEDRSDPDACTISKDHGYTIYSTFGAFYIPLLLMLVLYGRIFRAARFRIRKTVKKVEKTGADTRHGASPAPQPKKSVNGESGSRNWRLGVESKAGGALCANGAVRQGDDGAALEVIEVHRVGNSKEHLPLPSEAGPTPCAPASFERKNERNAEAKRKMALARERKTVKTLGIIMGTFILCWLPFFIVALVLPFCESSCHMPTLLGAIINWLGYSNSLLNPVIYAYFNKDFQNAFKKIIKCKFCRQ
Description: as §1, §2, §3

5-HT1B receptors = target: T3, 5-HT1B receptors (Homo sapiens, UniProt P28222); experiment: 5-HT1B receptor radioligand binding assay ([3H]-5-HT); conditions: CHO cells expressing 5-HT1B receptors; [3H]-5-HT 4 nM; 37° C., 45 minutes; read-out: pKi at 5-HT1B receptors (converted)
T3 construct: expressed in transfected cells; host or cells: CHO cells
Description: as §1, §2, §3

Measured: Ki

T3 sequence (P28222 whole entry): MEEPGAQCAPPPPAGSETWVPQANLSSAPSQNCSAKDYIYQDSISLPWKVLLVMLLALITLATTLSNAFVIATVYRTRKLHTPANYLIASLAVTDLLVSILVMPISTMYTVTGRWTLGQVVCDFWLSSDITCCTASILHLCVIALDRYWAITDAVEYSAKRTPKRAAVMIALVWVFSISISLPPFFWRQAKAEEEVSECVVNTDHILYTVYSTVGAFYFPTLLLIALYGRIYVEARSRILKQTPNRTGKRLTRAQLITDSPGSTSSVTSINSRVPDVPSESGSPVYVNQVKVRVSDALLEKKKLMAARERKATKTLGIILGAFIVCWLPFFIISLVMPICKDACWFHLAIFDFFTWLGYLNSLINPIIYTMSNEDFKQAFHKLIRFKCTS
T1 sequence (P28221 whole entry): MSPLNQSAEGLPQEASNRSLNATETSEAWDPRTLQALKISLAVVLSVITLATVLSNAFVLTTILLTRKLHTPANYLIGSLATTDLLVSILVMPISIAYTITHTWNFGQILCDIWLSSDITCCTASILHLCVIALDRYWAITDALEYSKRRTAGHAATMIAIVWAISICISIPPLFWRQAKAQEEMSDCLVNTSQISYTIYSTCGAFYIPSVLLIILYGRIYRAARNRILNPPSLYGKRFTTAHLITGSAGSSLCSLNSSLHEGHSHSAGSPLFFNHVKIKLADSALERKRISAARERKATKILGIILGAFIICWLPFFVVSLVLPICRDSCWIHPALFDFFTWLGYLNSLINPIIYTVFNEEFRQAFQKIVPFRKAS

CN1CC=C(c2csc3ccc(NC(=O)Nc4ccc(-c5ccncc5)c(Cl)c4)cc23)CC1 [Example 9, N-[3-Chloro-4-(pyridin-4-yl)phenyl]-N′-[3-(1-methyl-1,2,5,6-tetrahydropyridin-4-yl)benzo[b]thiophen-5-yl]-urea]
< 10 nM: all assays above

CN1CCC(c2c[nH]c3ccc(NC(=O)Nc4ccc(-c5ccncc5)c(Cl)c4Cl)cc23)CC1 [Example 3, N-[2,3-Dichloro-4-(pyridin-4-yl)phenyl]-N′-[3-(1-methylpiperidin-4-yl)indol-5-yl]-urea]
< 10 nM: all assays above

CN1CCC(c2csc3ccc(NC(=O)Nc4ccc(-c5ccncc5)c5ccccc45)cc23)CC1 [Example 12, N-[3-(1-Methylpiperidin-4-yl)benzo[b]thiophen-5-yl]-N′-[-4-(pyridin-4-yl)naphth-1-yl]-urea]
< 10 nM: all assays above

CN1CCC(c2c[nH]c3ccc(NC(=O)Nc4ccc(-c5ccncc5)cc4Cl)cc23)CC1 [Example 4, N-[2-Chloro-4-(pyridin-4-yl)phenyl]-N′-[3-(1-methylpiperidin-4-yl)indol-5-yl]-urea]
< 10 nM: all assays above

CN1CC=C(c2csc3ccc(NC(=O)Nc4ccc(-c5ccncc5)c5ccccc45)cc23)CC1 [Example 10, N-[3-(1-Methyl-1,2,5,6-tetrahydropyridin-4-yl)benzo[b]thiophen-5-yl]-N′-[4-(pyridin-4-yl)naphth-1-yl]-urea]
< 10 nM: all assays above

CN1CCC(c2c[nH]c3ccc(NC(=O)Nc4ccc(-c5ccncc5)c(Cl)c4)cc23)CC1 [Example 8, N-[3-Chloro-4-(pyridin-4-yl)phenyl]-N′-[3-(1-methylpiperidin-4-yl)indol-5-yl]-3-urea]
< 10 nM: all assays above

CN1CCC(c2c[nH]c3ccc(NC(=O)Nc4ccc(-c5ccncc5)c5ccccc45)cc23)CC1 [Example 1, N-[3-(1-Methylpiperdin-4-yl)indol-5-yl]-N′-[4-(pyridin-4-yl)naphth-1-yl]-urea]
< 10 nM: all assays above
